Legend:
Assay type in all cases: cell-based, human
[1] = test system: endogenous TP53 gene with UGA nonsense mutation in Calu-6 cells; experiment: p53 protein western blot, Calu-6 cells; details: 24 h
Procedure: After 24 h of treatment, proteins were extracted from the cells and the p53 protein was assessed by western blotting (Fig. 2a). After DMSO mock treatment, as anticipated, no p53 protein was detected, because of the presence of the PTC in p53 mRNA[33].
(§1) The three leftmost lanes show twofold serial dilutions of untreated HeLa cell extract. The molecular weight is indicated to the left of each gel. b Schematic representation of the construct used to measure the function of p53. The construct carries a cDNA encoding the firefly luciferase under a promoter having two p53-responsive elements (underlined). […] The level of p21 mRNA is related to the amount of functional p53 protein synthesized in the cell. The results presented in panels b and c are representative of at least two independent experiments., p-values (p) were calculated using Student’s t-test. Source data are provided as a Source Data file.
Proteins were extracted from 2 × 10^6 cells in lysis buffer containing 5% SDS, 50 mM Tris–HCl pH 7, 20 mM EDTA, and a protease inhibitor cocktail (HALT Protease Inhibitor Cocktail, Pierce-Biotechnology, Rockford, IL, USA). Lysates were subjected to 30 pulses of sonication (Branson Digital Sonifier/amplitude 20%) before a 5 min centrifugation at 8000×g.
The equivalent of 2.5 × 10^5 cells was subjected to 10% SDS–PAGE before transfer of the proteins to a nitrocellulose membrane. […] Antibodies were then detected with Super Signal West Femto Maximum Sensitivity Substrate (Pierce-Biotechnology, Rockford, IL, USA). Quantifications were performed with QuantityOne software (Biorad). […]

[2] = test system: p53 readthrough protein in Calu-6 cells; experiment: p53 function: luciferase under promoter with two p53-responsive elements, Calu-6
Text: as §1
Although DAP clearly promoted the synthesis of full-length proteins from UGA-nonsense-mutation-containing mRNAs, it was necessary to ascertain that the readthrough protein was functional. […] The first involved measuring the transcriptional activity of the p53 readthrough protein in Calu-6 cells transfected with an expression vector carrying the cDNA encoding firefly luciferase under the control of a promoter with two p53-responsive elements (Fig. 2b)[33]. Upon DMSO treatment, only basal luciferase activity was detected, reflecting promoter leakage (Fig. 2c). […] The second assay used the p53 target gene p21 (ref. [44]).

[3] = test system: nonsense-mediated mRNA decay (NMD) in Calu-6 cells; experiment: NMD efficiency: p53 mRNA / GAPDH mRNA by RT-PCR; details: 24 h; for Ratio of p53 mRNA to GAPDH mRNA: 600µM
Procedure: Source data are provided as a Source Data file.
Total RNA was purified from Calu-6 cells after 24 h of treatment.
RNA was purified using RNazol (MRC) according to the manufacturer’s instructions. 1/5 of the RNA preparation was used for reverse-transcription (RT) PCR (RT-PCR) using Superscript II (Life Technologies) for 2 h at 42 °C in the presence of random hexamers. The resulting cDNAs were PCR amplified in the presence of dCTP(α^33P) (Perkin Elmer) with the following primers: GAPDH mRNA (sense: 5′-[…]-3′; antisense: 5′-[…]-3′), p53 mRNA (sense: 5′-[…]-3′; antisense: 5′-[…]-3′), p21 mRNA (sense: 5′-[…]-3′; antisense: 5′-[…]-3′). PCR products were quantified with Personal Molecular Imager and QuantityOne quantification software (Bio-Rad).

## Nc1nc(N)c2[nH]cnc2n1 [DAP, 2,6-diaminopurine]
[1]; Calu-6 (UGA)
  Synthesis of p53 protein (western blot): dose-dependent synthesis of the p53 protein
[1]; Calu-6, western blot
  Lowest concentration at which p53 protein was detected: 1.56 µM
[2]
  Luciferase activity under p53-responsive promoter, in words: significantly increased
[2]; 6.25µM, average
  Luciferase activity, p53-responsive promoter construct (DMSO = 1): 1.454
[2]; 6.25µM, experiment 1
  Luciferase activity, p53-responsive promoter construct (DMSO = 1): 1.606
[2]; 6.25µM, experiment 2
  Luciferase activity, p53-responsive promoter construct (DMSO = 1): 1.415
[2]; 6.25µM, experiment 3
  Luciferase activity, p53-responsive promoter construct (DMSO = 1): 1.341
[2]; 25µM, average
  Luciferase activity, p53-responsive promoter construct (DMSO = 1): 2.545
[2]; 25µM, experiment 1
  Luciferase activity, p53-responsive promoter construct (DMSO = 1): 2.235
[2]; 25µM, experiment 2
  Luciferase activity, p53-responsive promoter construct (DMSO = 1): 2.893
[2]; 25µM, experiment 3
  Luciferase activity, p53-responsive promoter construct (DMSO = 1): 2.507
[3]; both tested concentrations
  NMD inhibition, in words: failed to inhibit NMD significantly

## CN[C@@H]1[C@@H](O)[C@@H](O[C@@H]2[C@@H](O)[C@H](O[C@H]3O[C@H]([C@@H](C)O)[C@@H](O)[C@H](O)[C@H]3N)[C@@H](N)C[C@H]2N)OC[C@]1(C)O [G418, reference compound]
[1]; 25 µM, Calu-6
  p53 protein detection (western blot): barely detected
[2]
  Luciferase activity under p53-responsive promoter, in words: remained at its background level
[2]; 25µM, average
  Luciferase activity, p53-responsive promoter construct (DMSO = 1): 1.04
[2]; 25µM, experiment 1
  Luciferase activity, p53-responsive promoter construct (DMSO = 1): 1.048
[2]; 25µM, experiment 2
  Luciferase activity, p53-responsive promoter construct (DMSO = 1): 0.7766
[2]; 25µM, experiment 3
  Luciferase activity, p53-responsive promoter construct (DMSO = 1): 1.295
[2]; 600µM, average
  Luciferase activity, p53-responsive promoter construct (DMSO = 1): 1.017
[2]; 600µM, experiment 1
  Luciferase activity, p53-responsive promoter construct (DMSO = 1): 1.299
[2]; 600µM, experiment 2
  Luciferase activity, p53-responsive promoter construct (DMSO = 1): 0.6289
[2]; 600µM, experiment 3
  Luciferase activity, p53-responsive promoter construct (DMSO = 1): 1.121
[3]; average
  Ratio of p53 mRNA to GAPDH mRNA: 0.3943
[3]; experiment 1
  Ratio of p53 mRNA to GAPDH mRNA: 0.4107
[3]; experiment 2
  Ratio of p53 mRNA to GAPDH mRNA: 0.3778
[3]
  Increase in p53 mRNA: 1.8 fold
